Measurements: US6262036A, “Method for inhibiting RNA translation using chimeric oligonucleoside compounds” (priority 2000, dated 2001)
[mp] = methylphosphonate linkage

What was measured:
[1] = tested on: complementary synthetic RNA target; test: Binding affinities of chimeric backbone oligomers to RNA (Example 35); design: KA (37° C.): unit not given here; details: for Tm: 1:1 molar ratio, 2.4 micromolar total strand, pH 7.2, 100 mM NaCl; for KA (37° C.): two-state model fit
Procedure: The following oligonucleotides were tested for their ability to hybridize to a complementary synthetic RNA target.
The bases shown in parentheses contain the backbone modification indicated in the middle set of brackets for each description, and likewise the terminal portions of the oligomers contain linkage structures as shown in the terminal sets of brackets. The PS/DE notation indicates an alternating array of bases beginning with a phosphorothioate linkage. For example, if there are five bases in a sequence denoted as PS/DE, they include three phosphorothioate (PS) bonds and two phosphodiester (DE) bonds.
Each oligomer was mixed with its complementary synthetic RNA target in a 1:1 molar ratio in a buffer system consisting of 20 mM sodium phosphate buffer (pH 7.2), 100 mM NaCl, 0.03% potassium sarkosylate and 0.1 mM EDTA; total strand concentration=2.4 micromolar. The resulting solutions were heated to 70° C. and slowly cooled to 4° C. over a time period of approximately 4-6 hours. […] The binding constants at 37° C.

[2] = tested on: endogenous eukaryotic RNaseH derived from HeLa cell nuclear extracts; assay type: biochemical; details: 10 μM oligomer, 1 μM RNA target
S1-endonuclease = test: Stability to nuclease digestion by S1-endonuclease (Example 37); assay type: in vitro ADME; details: S1-endonuclease 0.5 units/mL, pH 5.0, 37° C.; 50% full length oligomer digested
Procedure: The following oligomers were tested for nuclease stability in the presence of S1-endonuclease.
S1-endonuclease was purchased from Promega Corp. (Catalog #E576B, Madison, Wis.). Aliquots of each chimeric oligomer (0.05-0.075 OD260 units) were individually added to polypropylene microcentrifuge tubes containing S1-endonuclease (0.5 units/mL) in 30 mM sodium acetate (pH 5.0), 50 mM NaCl, 1.0 mM zinc acetate and 5% glycerol; total reaction volume=10 μL. These tubes were incubated at 37° C. for specified time periods, quickly frozen in dry ice and then stored in a freezer at -20° C. […] Column=Vydac Protein C4 (catalog #214TP54, 4.9 mm i.d.×250 mm long). Buffer A=50 mM triethylammonium acetate (pH 7)/1% acetonitrile; Buffer B=50 mM triethylammonium acetate (pH 7)/50% acetonitrile. […] The samples were diluted with water (50 μL) and injected onto the column using a 100 μL sample loop. Peaks corresponding to full length oligomer and its degradation products were detected by monitoring at 260 nm. The amount of degradation occurring in each reaction was determined by measuring the reduction in peak area for the full-length oligomer (identified by comparison to an external control and/or by coinjecting undigested oligomer as an internal control). The data is shown in tabular format below, and in graphic format in FIG. 1.

[3] = Stability to nuclease digestion in 10% fetal calf serum (Example 38); assay type: in vitro ADME; details: pH 8.0, 37° C., 50% full length oligomer digested, first three time points
Procedure: Multiple samples of each chimeric oligomer were prepared in 1.5 mL polypropylene microcentrifuge tubes on ice. Each sample contained oligomer (0.1 OD260 unit), 10% fetal calf serum (FCS, Gemini Bioproducts, Calabasas, Calif.), 20 mM HEPES (pH 8.0), 0.2% paramethylsulfonyl fluoride (PMSF), 175 mM KCl, 0.1 mM dithiothreitol, 0.1 mM EDTA, 2 mM MgCl2 and 4% glycerol--total volume=100 μL. The samples were incubated at 37° C. for specified time periods and then diluted with 0.4% NP-40/acetonitrile (35 μL), quickly frozen on dry ice and stored at -20° C. Samples were then individually thawed, diluted with water (635 μL) and analyzed immediately by reversed-phase HPLC according to the method given in the preceding example (except that a 2 mL sample loop was used to load the samples onto the column). Results are shown in tabular format below, and in graphical format in FIG. 2.

[4] = tested on: complementary RNA targets; test: Tm of Rp-enriched versus racemic methylphosphonate oligomers with RNA (Example 33); assay type: binding; details: for Tm: 2.4 μM total strand concentration, pH 7.2, 100 mM sodium chloride
pG1035 (SplicerCAT) = test: Inhibition of CAT expression, splicing target pG1035 (SplicerCAT), in COS-7 cells; assay type: cell-based, African Green Monkey; details: 1.0 μM oligomer; ± std error; normalized to protein and luciferase; chimeric oligomers also normalized to pG1036
Procedure: COS-7 cells were transiently transfected with plasmids encoding either a target reporter gene or a control non-target reporter gene. These cells were then treated with various chimeric antisense or control oligomers and then assayed for the expression of the reporter genes.
pG1035: Splicer CAT, inserted into a pRc/CMV vector
COS 7 cells were plated at 1.5×10^5 cells/well in a 12 well plate format on the day before transfections began. All cultures were maintained at 37° C. On the next day, the transfection mixes were prepared. For each well of a 12 well plate, 1.0 μM oligomer was combined with 1 μg pGL2 or pSVβ+1 μg of the target CAT plasmid in 0.5 ml of Optimem (Gibco/BRL) and 18.75 μg Transfectam (for chimeric oligomers, Promega) or Lipofectamine (for all PS oligomers, Promega) also in 0.5 ml of Optimem. These quantities gave a 6.9 or 4.5 or 2.0 to 1 cationic lipid to oligomer plus DNA ratio, respectively, in one milliliter total. pGL2 and pSVβ served as transfection and oligomer specificity controls. […]
The cell lysates were then assayed for CAT, and luciferase or […] activity, and the total protein concentration was determined as described below. […]
[…] of reaction mixture was then added to each tube, which was then incubated for, typically, approximately 1 hour in a 37° C. oven. […] The sample was then counted in a Packard scintillation counter.
This assay was performed generally as follows according to standard procedures. 20 μof lysate was combined with 100 μl of luciferase assay reagent (Promega) and counted in a scintillation counter (Packard) within 20 seconds (as recommended by Promega). […]
Six μl of lysate per well was added, followed by 300 μl Coomassie Protein Assay Reagent (Pierce) per well. The individual sample plates were then read at A570 on a microplate reader (Molecular Devices). […]
Oligomers were transfected into COS-7 cells and lysates were made and assayed as described previously. […] N.D.=not determined. […]

3256-1: 5'-GTCTTCCA(TGCAT)GTTGTCC-3' [MP(Rp)/DE][PS][MP(Rp)/DE] [Oligomer 3256-1]
Tm [1]: 60.1 °C
KA (37° C.) [1]: 5.5 × 10^13
RNaseH Cleavage after 2 Hrs. at 37° C. [2]: 18.7%
Half-Life for Degradation (S1-endonuclease): 12.5 h
Half-Life for Degradation [3]: 16.2 h

3257-1: 5'-GTCTTC(CATGCAT)GTTGTCC-3' [MP(Rp)/DE][PS/DE][MP(Rp)/DE] [Oligomer 3257-1]
Tm [1]: 60.9 °C
KA (37° C.) [1]: 2.1 × 10^14

2681-1: 5'-GTCTTCCA(TGCAT)GTTGTCC-3' [MP][PS/DE][MP] [Oligomer 2681-1]
Tm [1]: 44.1 °C
KA (37° C.) [1]: 2.1 × 10^7
Half-Life for Degradation (S1-endonuclease): 12.2 h
Half-Life for Degradation [3]: 8.1 h

2687-1: 5'-GTCTTCCA(TGCAT)GTTGTCC-3' [75% MP(Rp)][DE][75% MP(Rp)] [Oligomer 2687-1]
Tm [1]: 52.8 °C
KA (37° C.) [1]: 2.6 × 10^9

3214-1: 5'-GTCTTCCA(TGCAT)GTTGTCC-3' [MP(Rp)/DE][PS/DE][MP(Rp)/DE] [Oligomer 3214-1]
Tm [1]: 61.0 °C
KA (37° C.) [1]: 2.3 × 10^14
RNaseH Cleavage after 2 Hrs. at 37° C. [2]: 38.0%
Half-Life for Degradation (S1-endonuclease): 5.0 h
Half-Life for Degradation [3]: 4.3 h

2624-1: 3'-CTGTTG TACGT ACCTTCTG-5' Racemic MP (CTGTTGTACGTACCTTCTG; racemic methylphosphonate, chemistry not fully specified; listed 3' to 5') [Oligomer 2624-1]
Tm [4]: 38.6 °C

2517-1: 5'-GTG-TGT-GTG-TGT-GTG-TA-3'-3', racemic methylphosphonate (GTGTGTGTGTGTGTGTA; all [mp], sugars by position not given here; further chemistry not fully specified) [Oligomer 2517-1]
Tm [4]: 41.0 °C

2688-1: 5'-ATG-GTG-TCT-GTT-TGA-GGT-T-3', racemic methylphosphonate (ATGGTGTCTGTTTGAGGTT; all [mp], sugars by position and methylation of C not given here) [Oligomer 2688-1]
Tm [4]: 40.0 °C

XV-7: 24mer, all phosphorothioate: 5' ccc tga gag aga gag aga ggt tcg 3' (CCCTGAGAGAGAGAGAGAGGTTCG; all phosphorothioate, sugars by position and methylation of C not given here)
percent inhibition of CAT expression, pG1035 = splicing (pG1035 (SplicerCAT)): 17 ± 6%

1634-1: 5'-TAG-CTT-CCT-TAG-CTC-CTG-3', racemic methylphosphonate (TAGCTTCCTTAGCTCCTG; all [mp], sugars by position and methylation of C not given here) [Oligomer 1634-1]
Tm [4]: 38.2 °C

2253-1: 5'-AGA-GAG-AGA-GAG-AG-T-3', racemic methylphosphonate (AGAGAGAGAGAGAGT; all [mp], sugars by position not given here) [Oligomer 2253-1]
Tm [4]: 48.9 °C

2571-1: 5'-(G*T)(C*T)(T*C)(C*A)(T*G)(C*A)(T*G)(T*T)(G*T)-C-3', 75% MP(Rp) [Oligomer 2571-1]
Tm [4]: 46.3 °C
ΔTm ([4]; Rp-enriched versus racemic oligomer of the pair): 8.2 °C
